Data as given in EP0993439B1, “4-BROMO OR 4-IODO PHENYLAMINO BENZHYDROXAMIC ACID DERIVATIVES AND THEIR USE AS MEK INHIBITORS” (priority 1997, dated 1999).

Assays:
[1] = tested on: murine colon tumor, C26/clone 10; test: Murine colon tumor C26/clone 10 implanted subcutaneously in mice, compound given IP or PO on Days 1 through 14; type: in vivo, Male CD2F1 mice; conditions: for Change in Body Weight (grams): Days 1 through 14
Method: Male CD2F1 mice (NCI: Charles River, Kingston) were implanted subcutaneously with tumor fragments (approximately 30 mg) in the region of the right axilla on Day 0. […] The vehicle for the test compound, and for control animals, was 10% EtOH/10% Cremophor-EL (Sigma)/80% H2O, pH 5.0. Tumor volumes were recorded three times per week by measuring the length and width of the individual tumors and calculating mass in milligrams according to the formula (a × b^2)/2, where a and b are the length and width of the tumor. Percent treated/control (T/C) was calculated based on the ratio of the median tumor volume of the treated tumors compared with the median tumor volume of control animals on specified measurement days.

MEK [2] = biological target: T1, MEK (Homo sapiens, UniProt Q02750); test: Cascade assay for inhibitors of the MAP kinase pathway (32P incorporation into MBP with GST-MEK and GST-MAPK); type: biochemical; conditions: read-out: % Inhibition In Vitro
Method: Incorporation of ^32P into myelin basic protein (MBP) was assayed in the presence of a glutathione S-transferase fusion protein containing p44MAP kinase (GST-MAPK) and a glutathione S-transferase fusion protein containing p45MEK (GST-MEK). The assay solution contained 20 mM HEPES, pH 7.4, 10 mM MgCl2, 1 mM MnCl2, 1 mM EGTA, 50 µM [γ-^32P]ATP, 10 µg GST-MEK, 0.5 µg GST-MAPK and 40 µg MBP in a final volume of 100 µL. […] Compounds were assessed at 10 µM for ability to inhibit incorporation of ^32P.
To ascertain whether compounds were inhibiting GST-MEK or GST MAPK, two additional protocols were employed. In the first protocol, compounds were added to tubes containing GST-MEK, followed by addition of GST-MAPK, MBP and [γ-^32P]ATP. In the second protocol, compounds were added to tubes containing both GST-MEK and GST-MAPK, followed by MBP and [γ-^32P]ATP.

MEK [3] = biological target: T1, MEK; test: as above; type: biochemical; conditions: read-out: % Inhibition In Vitro; remark: listed apart in the source

T1 sequence (Q02750 whole entry, the tested form may be a part): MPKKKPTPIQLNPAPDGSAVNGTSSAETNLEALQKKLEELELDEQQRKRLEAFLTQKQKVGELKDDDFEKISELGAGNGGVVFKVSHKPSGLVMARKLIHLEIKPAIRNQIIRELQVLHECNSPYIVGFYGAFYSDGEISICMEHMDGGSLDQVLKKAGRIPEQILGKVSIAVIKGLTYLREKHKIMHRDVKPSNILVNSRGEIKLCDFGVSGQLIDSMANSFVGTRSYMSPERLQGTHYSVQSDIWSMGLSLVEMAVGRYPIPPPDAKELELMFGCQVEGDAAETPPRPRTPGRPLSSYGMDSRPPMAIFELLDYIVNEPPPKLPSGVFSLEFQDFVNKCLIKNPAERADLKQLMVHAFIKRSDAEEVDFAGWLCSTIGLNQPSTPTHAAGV

| SMILES | inhibition at 10 µM (MEK [2]) | inhibition at 1 µM (MEK [3]) | also measured |
| --- | --- | --- | --- |
| O=C(NOCC1CC1)c1ccc(F)c(F)c1Nc1ccc(I)cc1Cl [Example 95, 3,4-Difluoro-2-(2-chloro-4-iodo-phenylamino)-N-cyclopropylmethoxy-benzamide] | – | – | % T/C (Day 15) ([1]; IP, 48 mg/kg/day): 41%; Change in Body Weight (grams) ([1]; IP, 48 mg/kg/day): +3 grams; % T/C (Day 15) ([1]; IP, 77 mg/kg/day): 2%; Change in Body Weight (grams) ([1]; IP, 77 mg/kg/day): +2 grams; % T/C (Day 15) ([1]; IP, 124 mg/kg/day): 4%; Change in Body Weight (grams) ([1]; IP, 124 mg/kg/day): +3 grams; % T/C (Day 15) ([1]; IP, 200 mg/kg/day): 0%; Change in Body Weight (grams) ([1]; IP, 200 mg/kg/day): +2 grams; % T/C (Day 17) ([1]; PO, 71 mg/kg/day): 36%; Change in Body Weight (grams) ([1]; PO, 71 mg/kg/day): +2 grams; % T/C (Day 17) ([1]; PO, 115 mg/kg/day): 21%; Change in Body Weight (grams) ([1]; PO, 115 mg/kg/day): +2 grams; % T/C (Day 17) ([1]; PO, 186 mg/kg/day): 25%; Change in Body Weight (grams) ([1]; PO, 186 mg/kg/day): +2 grams; % T/C (Day 17) ([1]; PO, 300 mg/kg/day): 17%; Change in Body Weight (grams) ([1]; PO, 300 mg/kg/day): +2 grams |
| Cc1ccc(Cl)c(Nc2ccccc2C(=O)N(O)Cc2ccccc2)c1Cl [the 8th table: R6=CH2-Ph, R7=H] | 18% | -4% | – |
| Cc1ccc(Cl)c(Nc2ccccc2C(=O)N(C)O)c1Cl [the 8th table: R6=CH3, R7=H] | 19% | -5% | – |
| CONC(=O)c1ccccc1Nc1c(Cl)ccc(C)c1Cl [the 8th table: R6=H, R7=CH3] | 8% | -8% | – |
| Cc1ccc(Cl)c(Nc2ccccc2C(=O)NO)c1Cl [the 8th table: R6=H, R7=H] | -3% | 9% | – |
| Cc1ccc(Cl)c(Nc2ccccc2C(=O)N(O)C(C)C)c1Cl [the 8th table: R6=iPr, R7=H] | 9% | 17% | – |
| Cc1cccc(Nc2ccccc2C(=O)N(C)O)c1C [the 9th table: R6=CH3, R7=H] | 19% | 13% | – |
| CONC(=O)c1ccccc1Nc1cccc(C)c1C [the 9th table: R6=H, R7=CH3] | 12% | -6% | – |
| Cc1cccc(Nc2ccccc2C(=O)NO)c1C [the 9th table: R6=H, R7=H] | -4% | 6% | – |
| Cc1cccc(Nc2ccccc2C(=O)N(O)C(C)C)c1C [the 9th table: R6=iPr, R7=H] | 7% | -11% | – |
